“And” between values parts separate entries of the source, which are not always exact repeats. Equal entries are not always repeated.
Tests used:
[1] = design: species or system CD-1 mice; settings: mouse, in vivo
Method: Details of in vivo PK studies of KDU691 and LMV599 in CD-1 mice and monkeys can be found in the supplemental material.
Clinical chemistry and hematology
For the clinical analysis serum from 1 mL of clotted blood was analysed using the Cobas Integra 400 plus fully automated chemistry analyser. The following clinical parameters were determined: Alkaline phosphatase; Alanine Aminotransferase; Albumin: Aspartate aminotransfeasr; Bilirubin; Calcium; Cholesterol; Creatine kinase; Creatinine; C-reactive protein: Iron; Phosphate; Gamma-glutamyl transpeptidase; Glucose; Hemoglobin; Potassium; Lactate dehydrogenase; Sodium; Total protein; Urea Haematological parameters were determined from 1 mL EDTA-blood with a Sysmex XT-2000iV automated system. The following hematological parameters were determined: Basophilic granulocytes; Eosinophilic granulocytes; Erythrocytes; Hematocrit; Leucocytes; Leucocyte differentiation; Lymphocytes; Mean corpusculair hemoglobin; Mean corpusculair hemoglobin concentration; Mean corpusculair volume; Neutrophilic granulocytes; Red cell distribution width; Thrombocytes […]
For LC/MS/MS analysis, 50 µL of plasma samples were precipitated using 180 µL of acetonitrile:methanol:acetic acid (90:9.8:0.2) containing either related compound or warfarin as internal standard. After vortexing and centrifuging the mixture, the supernatant was removed and 5 µL of sample analyzed. […] In addition, quality control samples with three different concentrations were prepared in respective blank matrix and analyzed together with the unknown samples for validation purposes. Analyte quantitation was performed by LC/MS/MS using optimized conditions for each compound. […]
B), 3.92 – 4.0 min (85 – 35 % B) and 4.0 – 4.75 min (35 % B), with a flow rate of 1.0 mL/min, and a run time of 4.75 min. […] The most intense MRM transition (420.2/269) was used for quantitation using electrospray ionization in the positive mode. […]

[2] = tested on: P. cynomolgi developing EEFs (liver schizonts) in primary rhesus hepatocytes; assay: In vitro liver-stage drug assay with P. cynomolgi, large forms (developing EEFs / liver schizonts); format: cell-based, Plasmodium cynomolgi; settings: compound exposure 6 days, mean of several (9) independent assays, read-out: IC50 against developing EEFs / liver schizonts (large forms)
Method: (§1) In vitro infections of primary rhesus hepatocytes with P. cynomolgi sporozoites were performed according to methods described previously by Zeeman et al. ([10]). At day 6 postinfection (p.i.), the assay mixtures were fixed and stained with anti-P. cynomolgi Hsp70 rabbit antiserum and a fluorescein isothiocyanate (FITC)-labeled secondary antibody (goat anti-rabbit). Plates were analyzed with the Operetta high-content imaging system, differentially counting hypnozoites and developing extraerythrocytic forms (EEFs), based on parasite size ([10]).
(§2) In vitro activity against P. cynomolgi liver stages was determined for both compounds. The numbers of small (hypnozoites) and large (developing EEFs) parasites were determined by using Operetta and image analysis of primary rhesus hepatocyte cultures infected with P. cynomolgi sporozoites and exposed to the compound for 6 days ([10]). […] IC50s were determined by using the least-squares nonlinear regression method (Prism) for small and large parasites. Data from several independent experiments were used to calculate the IC50s for the two compounds.

[3] = tested on: P. cynomolgi hypnozoites in primary rhesus hepatocytes; assay: In vitro liver-stage drug assay with P. cynomolgi, small forms (hypnozoites); format: cell-based, Plasmodium cynomolgi; settings: compound exposure 6 days, mean of several (9) independent assays, read-out: IC50 against hypnozoites (small forms)
Method: as §1, §2

CNC(=O)c1ccc(-c2cnc3cnc(C(=O)N(C)c4ccc(Cl)cc4)cn23)cc1 [KDU691]
compound partitioning in the liver, Cmax over plasma [1]: 1.7 × | compound partitioning in the liver, exposure over plasma [1]: 3.1 × | F (oral bioavailability) ([1]; po, 25 mg/kg): 60% | IC50 [2]: 61 nM and 60 nM | IC50 [3]: 180 ± 210 nM

— article PMC4862498, “PI4 Kinase Is a Prophylactic but Not Radical Curative Target in Plasmodium vivax-Type Malaria Parasites” (Antimicrobial Agents and Chemotherapy, 2016)
